Literature values, collected in article PMC7909736 (Pharmaceutical Research, 2021).

Conditions: share rate of 10 s^−1, room temperature

- Viscosity: 0.47 Pa·s
SMILES: CC(=CCCCOCC(O)CO)CCCC(C)CCCC(C)C (stereo not shown) [Formulation C17MGE, mono-O-(5,9, 13-trimethyl-4-tetradecenyl) glycerol ester]
